{
  "source": "patent US20250129074A1",
  "about": "“CHIMERIC COMPOUND FOR TARGETED DEGRADATION OF ANDROGEN RECEPTOR PROTEIN, PREPARATION METHOD THEREFOR, AND MEDICAL USE THEREOF” (Jiangsu Hengrui Pharmaceuticals Co., Ltd., priority 2021, published 2025)",
  "key": {"[1]": {"system": "LNCap-FGC xenograft tumors", "assay": "Pharmacodynamic testing: LNCap-FGC subcutaneous xenograft in castrated CB17-SCID mice", "format": "in vivo", "details": "i.g.; for Mean tumor volume D 21 / Number of remaining animals/group / TGI D 21: qd/21 d", "source_text": "To evaluate the inhibition of the growth of castration-resistant prostate cancer LNCap-FGC subcutaneous xenograft tumors in male CB17-SCID mice by compounds of the present disclosure.\nTest animals: CB17-SCID male mice, purchased from Beijing Vital River Laboratory Animal Technology Co., Ltd. (certificate No. SCXK(Beijing)2016-0006; animal certification No. 110011220107542683), weighing about 20.54-26.72 g on purchase. Housing conditions: 5 animals/cage, a 12/12-hour light/dark cycle, a constant temperature of 23±1° C. with humidity at 50 to 60%, ad libitum access to food and water.\n0.2 mL (10×10^6 cells+Matrigel) of LNCaP FGC cells (Matrigel was added, in a 1:1 ratio by volume) in the logarithmic growth phase was subcutaneously inoculated into the right upper limb of each mouse. When the mean tumor volume reached 77 mm^3, male mice with stable tumor growth were selected and subjected to orchiectomy followed by three days of analgesic care. When the mean tumor volume reached 172 mm^3, grouping and administration were started. The day of grouping was defined as DO, and intragastric administration was started and performed once a day for 21 days. The 21th day after administration was defined as D21 (Table 7). For tumor-bearing mice, the tumor volume was measured with a vernier caliper and the body weight was measured with a balance twice a week, and data were recorded.\nAll data were plotted and statistically analyzed using Excel and GraphPad Prism 8 software.\nThe calculation formula for tumor volume (V) was: V=½×a×b^2, where a and b represent length and width, respectively.\nRelative tumor proliferation rate T/C(%)=(T-T0)/(C-C0)×100 (%), where T and C represent the tumor volumes of a treatment group and the control group at the end of the experiment; T0 and C0 represent the tumor volumes at the beginning of the experiment."}, "[2]": {"assay": "Pharmacokinetic evaluation in SD rats", "details": "both sexes, rat, in vivo, po, i.g., 2.0 mg/kg", "protocol": "SD rats were used as test animals.\n32 SD rats, provided by Vital River Laboratory Animal Co., Ltd., with an equal number of males and females, were evenly divided into 8 groups. The animals were fasted overnight and then intragastrically dosed.\nThe dose administered was 2.0 mg/kg, and the volume was 10.0 mL/kg.\nThe procedure starting from the blood collection to the centrifugation was performed under ice-bath conditions. Access to food was given 2 hours after administration."}, "[3]": {"system": "LNCaP cells", "assay": "Inhibition of LNCaP proliferation (CellTiter-Glo)", "format": "cell-based", "details": "Homo sapiens, 144 h, 0.1 nM R1881, six days", "protocol": "The plate was incubated in a 37° C., 5% CO2 cell incubator for three days. […] A blank control cell well containing 0.5% DMSO and a cell-free vehicle control well were set up. The plate was incubated in a 37° C., 5% CO2 cell incubator for six days."}, "[4]": {"target": "T1, androgen receptor (AR) (Homo sapiens, UniProt P10275, T878A)", "T1 construct": "host or cells: LNCaP human prostate cancer cells", "T1 sequence (P10275 1-920 T878A)": "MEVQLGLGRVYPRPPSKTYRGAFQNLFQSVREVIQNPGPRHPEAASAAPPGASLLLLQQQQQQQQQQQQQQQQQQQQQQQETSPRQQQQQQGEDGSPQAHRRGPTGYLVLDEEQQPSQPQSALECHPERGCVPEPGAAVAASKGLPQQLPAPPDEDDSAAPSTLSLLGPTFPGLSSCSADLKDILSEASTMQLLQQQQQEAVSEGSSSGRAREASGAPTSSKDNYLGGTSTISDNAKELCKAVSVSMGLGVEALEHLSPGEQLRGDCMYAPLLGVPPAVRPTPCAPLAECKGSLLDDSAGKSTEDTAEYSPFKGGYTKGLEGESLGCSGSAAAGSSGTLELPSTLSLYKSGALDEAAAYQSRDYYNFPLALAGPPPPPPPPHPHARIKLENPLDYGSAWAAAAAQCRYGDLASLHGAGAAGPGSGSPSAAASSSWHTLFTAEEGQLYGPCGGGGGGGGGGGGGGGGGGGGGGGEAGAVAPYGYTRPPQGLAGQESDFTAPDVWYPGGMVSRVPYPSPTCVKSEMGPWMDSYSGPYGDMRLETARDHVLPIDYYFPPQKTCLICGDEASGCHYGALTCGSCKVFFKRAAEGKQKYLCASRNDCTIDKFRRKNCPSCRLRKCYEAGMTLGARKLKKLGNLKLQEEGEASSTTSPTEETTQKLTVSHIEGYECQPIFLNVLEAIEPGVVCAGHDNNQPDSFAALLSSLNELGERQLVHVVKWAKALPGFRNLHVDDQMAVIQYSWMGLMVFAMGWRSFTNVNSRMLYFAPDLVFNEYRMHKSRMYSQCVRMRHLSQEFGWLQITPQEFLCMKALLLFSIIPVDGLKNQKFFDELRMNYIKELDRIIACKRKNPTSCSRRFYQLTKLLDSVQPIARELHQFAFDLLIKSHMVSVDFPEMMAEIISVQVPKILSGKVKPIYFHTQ", "assay": "Degradation activity on androgen receptor in LNCaP cells (AR ELISA)", "format": "cell-based", "details": "0.1 nM R1881, 24 hours", "outline": "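LNCaP cells were treated with compound, with a 0.5% DMSO blank control, for 24 h at 37 °C, 5% CO2. Cells were then lysed and the lysate clarified. AR protein level was read by ELISA.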"}},
  "note": "pIC50: −log10 of the molar value.",
  "data": [
    {"smiles": "N#Cc1ccc(O[C@H]2CC[C@H](NC(=O)c3ccc(N4CCC(CN5CCN(c6cc7c(cc6F)C(=O)N(C6CCC(=O)NC6=O)C7=O)CC5)CC4)nn3)CC2)cc1Cl", "note": "(stereo partly shown) [ARV-110, reference compound]", "values": [
      {"measurement": "Mean tumor volume D 21", "setting": "[1]; 1 mpk", "value": 789, "unit": "mm^3"},
      {"measurement": "Number of remaining animals/group", "setting": "[1]; 1 mpk", "value": "8/8"},
      {"measurement": "TGI D 21", "setting": "[1]; 1 mpk", "value": 57, "unit": "%"},
      {"measurement": "Mean tumor volume D 21", "setting": "[1]; 10 mpk", "value": 293, "unit": "mm^3"},
      {"measurement": "Number of remaining animals/group", "setting": "[1]; 10 mpk", "value": "8/8"},
      {"measurement": "TGI D 21", "setting": "[1]; 10 mpk", "value": 92, "unit": "%"}
    ]},
    {"smiles": "C[C@H]1CC2(CCN(c3ccc(C(=O)N4CCC(CN5CCN(c6cccc(N[C@H]7CCC(=O)NC7=O)c6)CC5)CC4)cc3F)CC2)CN1c1ccc(C#N)c(Cl)c1", "note": "[Example 15-1, 2-Chloro-4-((S)-8-(4-(4-((4-(3-(((S)-2,6-dioxopiperidin-3-yl)amino)phenyl)piperazin-1-yl)methyl)piperidine-1-carbonyl)-2-fluorophenyl)-3-methyl-2,8-diazaspiro[4.5]decan-2-yl)benzonitrile]", "values": [
      {"measurement": "effect on the body weight of the mice", "setting": "[1]; 1.5, 5 and 15 mpk, once daily for 21 days", "value": "little effect"},
      {"measurement": "Mean tumor volume D 21", "setting": "[1]; 1.5 mpk", "value": 255, "unit": "mm^3"},
      {"measurement": "Number of remaining animals/group", "setting": "[1]; 1.5 mpk", "value": "8/8"},
      {"measurement": "TGI D 21", "setting": "[1]; 1.5 mpk", "value": 94, "unit": "%"},
      {"measurement": "Mean tumor volume D 21", "setting": "[1]; 5 mpk", "value": 188, "unit": "mm^3"},
      {"measurement": "Number of remaining animals/group", "setting": "[1]; 5 mpk", "value": "8/8"},
      {"measurement": "TGI D 21", "setting": "[1]; 5 mpk", "value": 99, "unit": "%"},
      {"measurement": "Mean tumor volume D 21", "setting": "[1]; 15 mpk", "value": 117, "unit": "mm^3"},
      {"measurement": "Number of remaining animals/group", "setting": "[1]; 15 mpk", "value": "8/8"},
      {"measurement": "TGI D 21", "setting": "[1]; 15 mpk", "value": 104, "unit": "%"}
    ]},
    {"smiles": "C[C@H]1CC2(CCN(c3ccc(C(=O)N4CCC(CN5CCN(c6cccc(NC7CCC(=O)NC7=O)c6)CC5)CC4)cc3)CC2)CN1c1ccc(C#N)c(Cl)c1", "note": "(stereo partly drawn) [Example 11, 2-Chloro-4-((3S)-8-(4-(4-((4-(3-((2,6-dioxopiperidin-3-yl)amino)phenyl)piperazin-1-yl)methyl)piperidine-1-carbonyl)phenyl)-3-methyl-2,8-diazaspiro[4.5]decan-2-yl)benzonitrile]", "values": [
      {"measurement": "Vd/F", "setting": "[2]; read-out: Apparent distribution volume Vz/F", "value": 34.8, "unit": "L/kg"},
      {"measurement": "AUC(0-t)", "setting": "[2]; read-out: Area under curve AUC0-t", "value": 644, "unit": "ng·h/mL"},
      {"measurement": "CL/F", "setting": "[2]; read-out: Clearance rate CL/F", "value": 60.2, "unit": "mL/min/kg"},
      {"measurement": "half-life", "setting": "[2]; read-out: Half-life T½ (converted)", "value": 405, "unit": "min"},
      {"measurement": "Cmax", "setting": "[2]; read-out: Plasma concentration Cmax", "value": 69.4, "unit": "ng/mL"},
      {"measurement": "pIC50", "setting": "[3]", "value": 7.09},
      {"measurement": "Emax", "setting": "[3]; read-out: Max (maximum proliferation inhibition rate)", "value": 68, "unit": "%"},
      {"measurement": "DC50", "setting": "[4]; read-out: LNCaP DC50", "value": 7.3, "unit": "nM"},
      {"measurement": "Dmax", "setting": "[4]; read-out: Max (maximum AR degradation rate)", "value": 98, "unit": "%"}
    ]}
  ]
}
